Measured values: patent US7285536B2, “Anti-cancer therapeutic compounds” (Yeda Research and Development Co., Ltd., priority 2001, dated 2007)

System: 3LL lewis lung carcinoma, variant D122
Test: 3LL Lewis lung carcinoma (D122) experimental lung metastasis in mice: survival and lung weight
Format: in vivo, C57BL/6 mice
Method: C57BL/6, 12 months old male mice were obtained from the Jackson Laboratory.
Syngeneic, 3LL lewis lung carcinoma, variant D122, was obtained from the Weizmann Institute of Science. This tumor line develops metastases in the lungs after intravenous (iv) inoculation.
Cells were cultured in DMEM medium containing high glucose and supplemented with 10% FCS, glutamine and penicillin.
Cells were incubated 24 hr before inoculation into the mice with the different disaccharides (300 ng/ml) in culture medium. Then, the cells were washed and injected i. v., (500,000 cells per mouse) in 100 μl PBS containing 30 ng of the corresponding disaccharide.
The number of dead mice was counted each day after the inoculation was performed. The mice were sacrificed at day 50 and the weights of their lung were determined.
Each group, injected by one of the disaccharides, contained 16 mice. Control mice received PBS alone. The different disaccharides, were injected to the mice subcutaneously (30 ng per mouse in 0.1 ml of PBS), one day before and one and two days after cell inoculation.

[1] = day 49 after 3LL injection, 16 mice per group, DS 30 ng per mouse s.c. one day before and one and two days after inoculation

Work on `CC1(C)OC(COS(=O)(=O)O)[C@@](C)(COC[C@@]2(C)OC(C(=O)O)=CC(O)C2OS(=O)(=O)O)C(O)C1N` (stereo partly drawn) [DS 8892, α-ΔUA-2S-[1→4]-GlcN-6S] yielded a responders at 30 ng (Mus musculus, Lewis lung carcinoma, sc, 1176 h, day 49 after 3LL injection, [live mice/total mice] × 100, PBS control 6.2) of 25%, an inhibition in vivo at 30 ng (Mus musculus, Lewis lung carcinoma, sc, 1200 h, day 50 after 3LL injection, [1-(weights of treated group/weights of control group)] × 100, read-out: Decrease (%) of lung weight) of 28.8% and a dead mice [1] of 12. The live mice [1] was 4, the “Weights of lungs ± SD” value (day 50 after 3LL injection, PBS 0.92) was 0.66 ± 0.18 gr and the “anti-tumor treatment / inhibition of tumor development (in words)” value (mice inoculated i.v. with 3LL cells, treated with DS) was “did not inhibit the tumor development at all”.
